Results: US11235001B2, “RUNX inhibitor” (KYOTO UNIVERSITY, priority 2016, dated 2022)
Like-named read-outs stand apart in the source and are kept apart here.

What was measured:
MV4-11 cells = assay: Xenograft AML mouse model (MV4-11); type: in vivo; conditions: NOG mice with MV4-11, day 14
SU/SR cells = assay: Xenograft ALL mouse model (SU/SR); type: in vivo
BCR-ABL gene = assay: qRT-PCR of BCR-ABL gene in CML and PhALL cells; type: cell-based, human; conditions: 3 μM or 1 μM, 6 hours
Protocol: (§1) A total RNA was isolated with RNeasy mini kit (Qiagen) and reverse transcribed with Reverse script kit (TOYOBO) to generate cDNA. Real-time quantitative polymerase chain reaction (PCR) was carried out with 7500 Real-Time PCR System (Applied Biosystems) according to the manufacturer's instructions. Results were normalized to GAPDH levels. Relative expression levels were calculated using the 2-ΔΔCt method.
To BV173 cells, MYL cells, SU-Ph2 cells, and SU/SR cells, 3 μM or 1 μM of Chb-M′ was administered. After 6 hours, a total RNA was extracted from the cells, and then subjected to qRT-PCR (see the above-described “Real-time quantitative PCR (qRT-PCR)”) to quantify the expression levels of BCR-ABL gene. As a control, DMSO was administered. In the figures, the expression levels are shown as values relative to the mRNA level of p210BCR-ABL or the mRNA level of p190BCR-ABL in the DMSO (control)-administered group.

[1] = system: c-kit, phospho-c-Kit, AKT, phosphorylated AKT, Mitf; assay: Western blot of KIT signalling, HMC-1.2 mast cells; type: cell-based, human; conditions: HMC-1.2, 10 μM, 18 hours
Protocol: (§2) Cells were washed twice with ice cold phosphate-buffered saline (PBS) and harvested in protein lysis buffer [50 mM Tris (pH 7.4), 100 mM NaCl, 0.1 mM EDTA, 1 mM phenylmethylsulfonyl fluoride, 1 mM β-glycerophosphate, 2.5 mM sodium pyrophosphate, 1 mM Na3VO4, lx protease inhibitor (Roche) and PhosSTOP (Roche)]. Whole cell extracts were separated by SDS-polyacrylamide gel electrophoresis (SDS-PAGE) and electrotransferred onto polyvinylidene difluoride membranes. […] Blots were detected using Chemi-Lumi One Super (nacalai tesque, Inc.) and ChemiDoc™ XRS+ Imager (Bio-Rad Laboratories, Inc.), as recommended by the manufacturers. Protein levels were quantified with Image Lab Software (Bio-Rad Laboratories, Inc.).
To the LAD2 cell line and the HMC-1.2 cell line, 10 μM Chb-M′ was administered. After culturing the cells for 18 hours, extracts were obtained from the cells, and the protein expression levels of c-kit, phospho-c-Kit, AKT, phosphorylated AKT, Mitf, and GAPDH were analyzed by the Western blot analysis (see the above-described “Immunoblotting”) using different antibodies. […]

ROR1 and ROR2 [2] = assay: qRT-PCR of ROR1 and ROR2 in DAOY; type: cell-based, human; conditions: 1 μM, 6 hours
Protocol: as §1
To medulloblastoma cell line DAOY, 1 μM Chb-M′ was administered. After 6 hours, the mRNA levels of cancer promoting factors ROR1 and ROR2, which are important for medulloblastoma, were evaluated by qRT-PCR (see the above-described “Real-time quantitative PCR (qRT-PCR)”). As a control, DMSO was administered. In the figure, the mRNA expression levels of ROR1 and ROR2 are shown as values relative to those in the DMSO-treated group. As evident from FIG. 48, the expressions of ROR family were suppressed by Chb-M′ at transcriptional levels.

ROR1 and ROR2 [3] = assay: Western blotting of ROR1 and ROR2 in DAOY; type: cell-based, human; conditions: 1 μM, 24 hours
Protocol: as §2, with “membranes. Membranes were probed with the following antibodies: anti-Ctip1 antibody (Abcam, ab19487), anti-TRIM24 antibody (Bethyl Laboratories, Inc), anti-RUNX1 antibody (A-2), anti-GAPDH (FL-335), anti-p21 (C-19), anti-Bax (N-20) antibodies (Santa Cruz Biotechnology, Inc.), anti-RUNX2, anti-RUNX3, anti-p53 antibodies (Cell Signaling Technology), anti-CBFβ antibody (FL-182, Santa Cruz Biotechnology, Inc.), anti-cleaved caspase-3 antibody (5A1E, Cell Signaling Technology), anti-PARP antibody (46D11, Cell Signaling Technology).” for “membranes.”
To DAOY cells, 1 μM Chb-M′ was administered. […] The expression of ROR1 was too weak to be detected.

THP-1 = conditions: THP-1, p53mut(+); for IC50: 48 hours
DU-145 cells = conditions: read-out: IC50 (μM) in DU-145 cells; DU-145 (androgen-independent), 48 hours

With `CN(C)CCCNC(=O)c1cc(NC(=O)c2cc(NC(=O)c3cc(NC(=O)c4cc(NC(=O)CCCNC(=O)c5nc(NC(=O)c6nc(NC(=O)c7cc(NC(=O)c8nc(NC(=O)CCNC(=O)CCCc9ccc(N(CCCl)CCCl)cc9)cn8C)cn7C)cn6C)cn5C)cn4C)cn3C)cn2C)cn1C` [Chb-M′] the “H&E staining of bone marrow” value (MV4-11 cells) was “homogeneity was lost”, the “hCD45 staining of bone marrow (human leukemia cells)” value (MV4-11 cells) was “most of the brown parts lost” and the “H&E staining of bone marrow” value (SU/SR cells; NOG mice with SU/SR) was “homogeneity was lost”. The “Invasion of liver by transplanted PhALL cells (hCD45 staining)” value (SU/SR cells; NOG mice with SU/SR) was “reduced”, the “Invasion of spleen by transplanted PhALL cells (hCD45 staining), compared with liver” value (SU/SR cells; NOG mice with SU/SR) was “same results” and the “hCD45 staining of bone marrow (human leukemia cells)” value (SU/SR cells; NOG mice with SU/SR) was “most of the brown parts lost”. For the same compound, the “Lengthening of overall survival periods” value (SU/SR cells; NOG mice with SU/SR (Ph+), 320 μg/kg IV twice a week) was “about 1.8 times”, the “mRNA level of p210BCR-ABL” value (BCR-ABL gene; BV173 cells) was “decreased” and the “mRNA level of p210BCR-ABL” value (BCR-ABL gene; MYL cells) was “decreased”. For the same compound, the “mRNA level of p190BCR-ABL” value (BCR-ABL gene; SU-Ph2 cells) was “decreased”, the “mRNA level of p190BCR-ABL” value (BCR-ABL gene; SU/SR cells) was “decreased” and the “Expression levels of c-kit and phospho-c-Kit” value [1] was “suppressed”. The “pAKT amount of protein” value [1] was “slight decrease”, the “Expressions of ROR family (ROR1 and ROR2 mRNA)” value (ROR1 and ROR2 [2]) was “suppressed” and the “Expression of ROR2 at a protein level” value (ROR1 and ROR2 [3]) was “suppressed”. For the same compound, the “CI (Fa = 0.5)” value (THP-1; concomitant use of Chb-M′ and PRIMA-1, Chou-Talalay, CI<1 synergism) was 0.249, the IC50 (THP-1; read-out: IC50 (μM) of Chb-M′ in concomitant use with PRIMA-1 (5 μM), with 5 μM PRIMA-1) was 0.5 µM and the IC50 (THP-1; read-out: IC50 (μM) of Chb-M′ single agent administration) was > 100 µM. It also gave an IC50 (DU-145 cells) of 1.82 µM.
